# Data reported in publication PMC7588595, “Small-molecule active pharmaceutical ingredients of approved cancer therapeutics inhibit human aspartate/asparagine-β-hydroxylase” (Bioorganic & Medicinal Chemistry, 2020).
# Structures can show the parent of a compound that is named as a salt. Where two headings read alike, the source gives them in different places.
# Target: T1, human AspH (His6-AspH315–758) (Homo sapiens, UniProt Q12797)
# T1 construct: N-Terminally His6-tagged human AspH315–758 (His6-AspH315–758) was produced in Escherichia coli BL21 (DE3) cells; made in house; host or cells: Escherichia coli BL21 (DE3), pET-28a(+) vector
# T1 sequence (Q12797 315-758): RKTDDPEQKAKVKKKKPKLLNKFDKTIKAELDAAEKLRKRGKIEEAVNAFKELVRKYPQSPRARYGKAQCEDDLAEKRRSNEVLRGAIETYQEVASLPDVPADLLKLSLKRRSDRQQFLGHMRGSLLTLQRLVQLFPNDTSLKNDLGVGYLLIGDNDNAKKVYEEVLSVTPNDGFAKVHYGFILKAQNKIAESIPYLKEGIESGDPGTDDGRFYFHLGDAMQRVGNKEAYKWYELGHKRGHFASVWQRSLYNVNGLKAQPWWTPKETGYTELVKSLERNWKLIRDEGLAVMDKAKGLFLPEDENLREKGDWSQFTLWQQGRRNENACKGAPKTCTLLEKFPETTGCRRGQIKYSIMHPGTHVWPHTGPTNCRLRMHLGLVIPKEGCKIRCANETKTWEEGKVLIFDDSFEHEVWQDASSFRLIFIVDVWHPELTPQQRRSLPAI
# Experiment: SPE-MS AspH inhibition assay (hFX-CP101-119 substrate hydroxylation)
# Assay type: biochemical
# Conditions: for Plate 1 (% inhibition) / Plate 1 (% conversion) / Plate 1-duplicate (% inhibition) / Plate 1-duplicate (% conversion): AspH-inhibitor screening; for Plate 1 (% inhibition): 384-well Plate 1; for Plate 1 (% conversion): 384-well Plate 1, substrate conversion; for Plate 1-duplicate (% conversion): substrate conversion
Compound,Plate 1 (% inhibition) [%],Plate 1 (% conversion) [%],Plate 1-duplicate (% inhibition) [%],Plate 1-duplicate (% conversion) [%],"IC50 (50 nM His6-AspH315–758, 1 μM hFX-CP101–119, 100 μM LAA, 3 μM 2OG, 2 μM FAS, 50 mM HEPES pH 7.5, 20 °C, read-out: IC50) [µM]",remaining activity at 20 µM (20 μM fixed inhibitor concentration) [%],Hill coefficient of AspH inhibition curves (dose-response curves of SPE-MS AspH inhibition assay),"IC50 (read-out: IC50 at 10 μM substrate, 10 μM hFX-CP101–119 and 10 μM 2OG instead of 1 μM hFX-CP101–119 and 3 μM 2OG) [µM]","IC50 (read-out: IC50 at 20 μM Fe(II), 20 μM Fe(II) instead of 2 μM Fe(II)) [µM]","IC50 (read-out: IC50 at 200 μM 2OG, 200 μM 2OG instead of 3 μM 2OG) [µM]"
CC1(C)CNc2cc(NC(=O)c3cccnc3NCc3ccncc3)ccc21.O=P(O)(O)O.O=P(O)(O)O [Motesanib Diphosphate (AMG-706)],35.35,33.43,26.44,38.93,–,–,–,–,–,–
CCNC(=O)c1noc(-c2cc(C(C)C)c(O)cc2O)c1-c1ccc(CN2CCOCC2)cc1 [NVP-AUY922],-7.77,53.34,-12.32,58.15,–,–,–,–,–,–
Cn1c(=O)n(-c2ccc(C(C)(C)C#N)cc2)c2c3cc(-c4cnc5ccccc5c4)ccc3ncc21 [NVP-BEZ235_Dactolisib],5.14,47.38,3.83,50.14,–,–,–,–,–,–
CCN1CCN(c2ccc(Nc3cc(N(C)C(=O)Nc4c(Cl)c(OC)cc(OC)c4Cl)ncn3)cc2)CC1 [NVP-BGJ398],-4.10,51.64,-20.49,62.20,–,–,–,–,–,–
Cc1c(C(=O)Nc2ccc(N3C[C@@H](C)O[C@@H](C)C3)nc2)cccc1-c1ccc(OC(F)(F)F)cc1.O=P(O)(O)O.O=P(O)(O)O [NVP-LDE225 (Diphosphate salt)],-20.13,59.05,-19.69,61.81,–,–,–,–,–,–
COc1nc(N)nc2c1ncn2[C@@H]1O[C@H](CO)[C@@H](O)[C@@H]1O [Nelarabine],-1.21,50.31,1.44,51.33,–,–,–,–,–,–
Cc1cn(-c2cc(NC(=O)c3ccc(C)c(Nc4nccc(-c5cccnc5)n4)c3)cc(C(F)(F)F)c2)cn1 [Nilotinib],-10.38,54.54,-7.89,55.95,–,–,–,–,–,–
CC1(C)NC(=O)N(c2ccc([N+](=O)[O-])c(C(F)(F)F)c2)C1=O [Nilutamide],4.05,47.88,4.06,50.03,–,–,–,–,–,–
COc1ccc(C2=N[C@@H](c3ccc(Cl)cc3)[C@@H](c3ccc(Cl)cc3)N2C(=O)N2CCNC(=O)C2)c(OC(C)C)c1 [Nutlin-3],-13.27,55.88,-5.84,54.94,–,–,–,–,–,–
C[C@]1(O)C[C@@H](c2nc(-c3ccc4ccc(-c5ccccc5)nc4c3)c3c(N)nccn32)C1 [OSI-906_Linsitinib],4.66,47.60,-12.38,58.18,–,–,–,–,–,–
"COc1c/c(=C2\C=c3ccccc3=N2)[nH]/c1=C\c1[nH]c(C)cc1C.CS(=O)(=O)O [Obatoclax, reference compound]",–,–,–,–,13.2 ± 3.1,~20,< -2.0,9.44 ± 3.16,11.9 ± 0.8,16.4 ± 4.6
O=C(c1cc(Cc2n[nH]c(=O)c3ccccc23)ccc1F)N1CCN(C(=O)C2CC2)CC1 [Olaparib],15.27,42.70,14.14,45.03,–,–,–,–,–,–
COC(=O)C[C@](O)(CCCC(C)(C)O)C(=O)O[C@@H]1C(OC)=C[C@]23CCCN2CCc2cc4c(cc2[C@H]13)OCO4 [Omacetaxine mepesuccinate],-1.21,50.31,6.33,48.90,–,–,–,–,–,–
C=CC(=O)Nc1cc(Nc2nccc(-c3cn(C)c4ccccc34)n2)c(OC)cc1N(C)CCN(C)C [Osimertinib],34.01,34.05,33.73,35.31,–,–,–,–,–,–
O=C(O)C(=O)O.[NH-][C@@H]1CCCC[C@H]1[NH-].[Pt+2] [Oxaliplatin],8.19,45.97,11.28,46.45,–,–,–,–,–,–
C=CC(=O)N1CCC[C@@H](n2nc(-c3ccc(Oc4ccccc4)cc3)c3c(N)ncnc32)C1 [PCI-32765_Ibrutinib],0.65,49.45,-9.59,56.80,–,–,–,–,–,–
Nc1ncnc2c1c(COc1cccc(Cl)c1)nn2C1CCOCC1 [PF4800567 hydrochloride],-0.85,50.14,0.27,51.91,–,–,–,–,–,–
CN(c1ccccc1CNc1nc(Nc2ccc3c(c2)CC(=O)N3)ncc1C(F)(F)F)S(C)(=O)=O [PF 431396],1.90,48.87,-4.64,54.34,–,–,–,–,–,–
Cn1cc(-c2[nH]c3cc(NC(=O)[C@H](N)C4CCCCC4)cc4c3c2C=NNC4=O)cn1 [PF 477736],-54.30,74.83,-54.03,78.84,–,–,–,–,–,–
C[C@@H](Oc1cc(-c2cnn(C3CCNCC3)c2)cnc1N)c1c(Cl)ccc(F)c1Cl [PF-2341066 (Crizotinib)],-4.19,51.68,-4.98,54.51,–,–,–,–,–,–

# The next lines start with the values.
Plate 1 (% inhibition) [%],Plate 1 (% conversion) [%],Plate 1-duplicate (% inhibition) [%],Plate 1-duplicate (% conversion) [%],"IC50 (50 nM His6-AspH315–758, 1 μM hFX-CP101–119, 100 μM LAA, 3 μM 2OG, 2 μM FAS, 50 mM HEPES pH 7.5, 20 °C, read-out: IC50) [µM]",remaining activity at 20 µM (20 μM fixed inhibitor concentration) [%],Hill coefficient of AspH inhibition curves (dose-response curves of SPE-MS AspH inhibition assay),"IC50 (read-out: IC50 at 10 μM substrate, 10 μM hFX-CP101–119 and 10 μM 2OG instead of 1 μM hFX-CP101–119 and 3 μM 2OG) [µM]","IC50 (read-out: IC50 at 20 μM Fe(II), 20 μM Fe(II) instead of 2 μM Fe(II)) [µM]","IC50 (read-out: IC50 at 200 μM 2OG, 200 μM 2OG instead of 3 μM 2OG) [µM]",Compound
-4.91,52.02,-2.62,53.34,–,–,–,–,–,–,COc1cccc2cc(-c3nc([C@H]4CC[C@H](C(=O)O)CC4)n4ncnc(N)c34)[nH]c12 [OSI-027]
3.72,48.03,-0.37,52.23,–,–,–,–,–,–,C=CCc1cccc(/C=N/NC(=O)CN2CCN(Cc3ccccc3)CC2)c1O [PAC-1]
1.12,49.23,-1.13,52.60,–,–,–,–,–,–,CC(=O)c1c(C)c2cnc(Nc3ccc(N4CCNCC4)cn3)nc2n(C2CCCC2)c1=O [PD-0332991]
40.03,31.27,29.89,37.22,–,–,–,–,–,–,Nc1nccc(-c2c(-c3ccc(F)cc3)ncn2C2CCCCC2)n1 [PF670462]
5.62,47.15,-12.27,58.13,–,–,–,–,–,–,O=C(Nc1cccnc1)N1CCC(Cc2cccc(Oc3ccc(C(F)(F)F)cn3)c2)CC1 [PF-3845]
-6.58,52.79,-5.13,54.58,–,–,–,–,–,–,COc1ccc(-c2cc3c(C)nc(N)nc3n([C@H]3CC[C@H](OCCO)CC3)c2=O)cn1 [PF-04691502]
-5.43,52.26,-7.38,55.70,–,–,–,–,–,–,CCc1cncnc1N1CCN(Cc2nc3ccc(C(F)(F)F)cc3[nH]2)CC1 [PF-04708671]
